Where two headings read alike, the source gives them in different places.
Assays:
Format in all cases: biochemical
Pim1 kinase = Pim1 kinase (Homo sapiens, UniProt P11309); assay: Pim1 ATP depletion assay; settings: Pim1 ATP depletion assay;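 also: Luciferase-luciferin luminescence readout of residual ATP after PIM1 transfers phosphate to a peptide substrate, 40 µM ATP added, reaction run to roughly half ATP consumption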
Pim2 kinase = Pim2 kinase (Homo sapiens, UniProt Q9P1W9); assay: Pim2 ATP depletion assay;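 also: Luciferase-based luminescent readout of ATP remaining after PIM2 phosphorylates a BAD peptide, final 5 nM enzyme, 4 µM ATP, 10 µM peptide, 2.5% DMSO, run to roughly half ATP consumption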
Sequence of Pim2 kinase (Q9P1W9 whole entry): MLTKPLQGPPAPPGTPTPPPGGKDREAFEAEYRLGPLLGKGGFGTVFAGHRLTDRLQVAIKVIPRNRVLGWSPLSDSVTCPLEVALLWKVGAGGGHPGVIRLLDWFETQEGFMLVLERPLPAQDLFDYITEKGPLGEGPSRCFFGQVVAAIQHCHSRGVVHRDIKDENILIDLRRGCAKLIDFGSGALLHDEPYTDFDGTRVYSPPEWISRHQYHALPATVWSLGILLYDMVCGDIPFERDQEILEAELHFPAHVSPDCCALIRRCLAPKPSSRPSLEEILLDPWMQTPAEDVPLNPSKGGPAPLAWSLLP

Pim3 kinase = Pim3 kinase (Homo sapiens, UniProt Q86V86); assay: Pim3 ATP depletion assay

Measured: IC50

Sequence of Pim1 kinase (P11309 whole entry): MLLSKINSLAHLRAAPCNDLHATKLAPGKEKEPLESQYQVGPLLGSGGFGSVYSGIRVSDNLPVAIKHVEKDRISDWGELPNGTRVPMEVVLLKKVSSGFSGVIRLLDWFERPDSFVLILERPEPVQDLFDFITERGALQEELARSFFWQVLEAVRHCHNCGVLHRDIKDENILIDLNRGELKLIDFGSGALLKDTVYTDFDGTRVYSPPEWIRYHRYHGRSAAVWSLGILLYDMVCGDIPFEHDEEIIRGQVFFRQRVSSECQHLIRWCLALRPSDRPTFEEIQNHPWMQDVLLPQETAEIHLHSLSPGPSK

Cc1nc(N)cc(-c2ccncc2NC(=O)c2nc(-c3c(F)ccc(OC(C)C)c3F)ccc2N)n1 [Example 537, 3-Amino-6-(2,6-difluoro-3-isopropoxy-phenyl)-pyridine-2-carboxylic acid [4-(6-amino-2-methyl-pyrimidin-4-yl)-pyridin-3-yl]-amide]
< 1 µM: Pim1 kinase; read-out: PIM1 IC50 | Pim2 kinase; read-out: PIM2 IC50 | Pim3 kinase; read-out: PIM3 IC50

Cc1ccc(-c2ccc(N)c(C(=O)Nc3cnccc3N3CCC[C@H](N)C3)n2)c(F)n1 [Example 476, 5-Amino-2′-fluoro-6′-methyl-[2,3′]bipyridinyl-6-carboxylic acid (3-amino-3,4,5,6-tetrahydro-2H-[1,4′]bipyridinyl-3′-yl)-amide]
< 1 µM: Pim1 kinase; read-out: IC50 (μM) PIM1 | Pim2 kinase; read-out: IC50 (μM) PIM2 | Pim3 kinase; read-out: IC50 (μM) PIM3

CC(C)NC(=O)c1ccc(F)c(-c2ccc(N)c(C(=O)Nc3cnccc3N3CCC[C@H](O)C3)n2)c1 [Example 651, 3-Amino-6-(2-fluoro-5-isopropylcarbamoyl-phenyl)-pyridine-2-carboxylic acid (3-hydroxy-3,4,5,6-tetrahydro-2H-[1,4′]bipyridinyl-3′-yl)-amide]
< 1 µM: Pim1 kinase; read-out: PIM1 IC50 | Pim2 kinase; read-out: PIM2 IC50 | Pim3 kinase; read-out: PIM3 IC50

Cc1nc(N)cc(-c2ccncc2NC(=O)c2nc(-c3c(F)cccc3F)ccc2N)n1 [Example 274, 3-Amino-6-(2,6-difluoro-phenyl)-pyridine-2-carboxylic acid [4-(6-amino-2-methyl-pyrimidin-4-yl)-pyridin-3-yl]-amide]
< 1 µM: Pim1 kinase; read-out: IC50 (μM) PIM1 | Pim2 kinase; read-out: IC50 (μM) PIM2 | Pim3 kinase; read-out: IC50 (μM) PIM3

Nc1ccc(-c2ncccc2F)nc1C(=O)Nc1cnccc1N1CCC(O)C(N)C1 (stereo not drawn) [Example 735, 5-Amino-3′-fluoro-[2,2′]bi-pyridinyl-6-carboxylic acid (3-amino-4-hydroxy-3,4,5,6-tetra-hydro-2H-[1,4′]bipyridinyl-3′-yl)-amide]
< 1 µM: Pim1 kinase; read-out: PIM1 IC50 | Pim2 kinase; read-out: PIM2 IC50 | Pim3 kinase; read-out: PIM3 IC50

N[C@H]1CCCN(c2ccncc2NC(=O)c2cccc(-c3nccs3)n2)C1 [Example 631, N-{4-[(3S)-3-amino-piperidin-1-yl]pyridin-3-yl}-6-(1,3-thiazol-2-yl)pyridine-2-carboxamide]
< 1 µM: Pim1 kinase; read-out: PIM1 IC50 | Pim2 kinase; read-out: PIM2 IC50 | Pim3 kinase; read-out: PIM3 IC50

CC(C)NC(=O)c1ccc(F)c(-c2ccc(N)c(C(=O)Nc3cnccc3N3C[C@@H](N)C[C@H](OC(=O)c4ccccc4)C3)n2)c1 (stereo in doubt) [Example 294, Benzoic acid 5-amino-3′-{[3-amino-6-(2-fluoro-5-isopropylcarbamoyl-phenyl)-pyridine-2-carbonyl]-amino}-3,4,5,6-tetrahydro-2H-[1,4′]bi-pyridinyl-3-yl ester]
< 1 µM: Pim1 kinase; read-out: IC50 (μM) PIM1 | Pim2 kinase; read-out: IC50 (μM) PIM2 | Pim3 kinase; read-out: IC50 (μM) PIM3

Nc1ccc(-c2cccc[n+]2[O-])nc1C(=O)Nc1cnccc1N1CCC[C@H](N)C1 [Example 693, 5-Amino-1′-oxy-[2,2′]bi-pyridinyl-6-carboxylic acid (3-amino-3,4,5,6-tetrahydro-2H-[1,4′]bipyridinyl-3′-yl)-amide]
< 1 µM: Pim1 kinase; read-out: PIM1 IC50 | Pim2 kinase; read-out: PIM2 IC50 | Pim3 kinase; read-out: PIM3 IC50

Nc1ccc(-c2ccc(F)cn2)nc1C(=O)Nc1cnccc1N1CCC[C@H](N)C1 [Example 727, 5-Amino-5′-fluoro-[2,2′]bi-pyridinyl-6-carboxylic acid (3-amino-3,4,5,6-tetrahydro-2H-[1,4′]bipyridinyl-3′-yl)-amide]
< 1 µM: Pim1 kinase; read-out: PIM1 IC50 | Pim2 kinase; read-out: PIM2 IC50 | Pim3 kinase; read-out: PIM3 IC50

Nc1cc(F)c(Br)nc1C(=O)Nc1cnccc1N1CCC[C@H](N)C1 [Example 259, 3-amino-N-{4-[(3S)-3-amino-piperidin-1-yl]pyridin-3-yl}-6-bromo-5-fluoropyridine-2-carboxamide]
< 1 µM: Pim1 kinase; read-out: IC50 (μM) PIM1 | Pim2 kinase; read-out: IC50 (μM) PIM2 | Pim3 kinase; read-out: IC50 (μM) PIM3

CC(C)N(C)C(=O)c1ccc(F)c(-c2ccc(N)c(C(=O)Nc3cnccc3N3CCC[C@H](N)C3)n2)c1F [Example 689, 3-Amino-6-[2,6-difluoro-3-(isopropyl-methyl-carbamoyl)-phenyl]-pyridine-2-carboxylic acid (3-amino-3,4,5,6-tetra-hydro-2H-[1,4′]bipyridinyl-3′-yl)-amide]
< 1 µM: Pim1 kinase; read-out: PIM1 IC50 | Pim2 kinase; read-out: PIM2 IC50 | Pim3 kinase; read-out: PIM3 IC50

Cc1cc(-c2ccncc2NC(=O)c2nc(-c3c(F)cccc3F)ccc2N)cc(N)n1 [Example 623, 3-amino-N-(2′-amino-6′-methyl-4,4′-bipyridin-3-yl)-6-(2,6-difluorophenyl)pyridine-2-carboxamide]
< 1 µM: Pim1 kinase; read-out: PIM1 IC50 | Pim2 kinase; read-out: PIM2 IC50 | Pim3 kinase; read-out: PIM3 IC50

CC(C)NC(=O)c1ccc(F)c(-c2cccc(C(=O)Nc3cnccc3N3CCC[C@H](N)C3)n2)c1 [Example 453, 6-(2-Fluoro-5-isopropylcarbamoyl-phenyl)-pyridine-2-carboxylic acid (3-amino-3,4,5,6-tetrahydro-2H-[1,4′]bipyridinyl-3′-yl)-amide]
< 1 µM: Pim1 kinase; read-out: IC50 (μM) PIM1 | Pim2 kinase; read-out: IC50 (μM) PIM2 | Pim3 kinase; read-out: IC50 (μM) PIM3

CCc1cc(-c2ccncc2NC(=O)c2nc(-c3c(F)cccc3F)ccc2N)cc(N)n1 [Example 620, 3-Amino-6-(2,6-difluoro-phenyl)-pyridine-2-carboxylic acid (6′-amino-2′-ethyl-[4,4′]bipyridinyl-3-yl)-amide]
< 1 µM: Pim1 kinase; read-out: PIM1 IC50 | Pim2 kinase; read-out: PIM2 IC50 | Pim3 kinase; read-out: PIM3 IC50

COc1cncc(-c2ccc(N)c(C(=O)Nc3cnccc3N3CCC[C@H](N)C3)n2)n1 [Example 722, 3-Amino-6-(6-methoxy-pyrazin-2-yl)-pyridine-2-carboxylic acid (3-amino-3,4,5,6-tetrahydro-2H-[1,4′]bipyridinyl-3′-yl)-amide]
< 1 µM: Pim1 kinase; read-out: PIM1 IC50 | Pim2 kinase; read-out: PIM2 IC50 | Pim3 kinase; read-out: PIM3 IC50

CCOc1cccc(-c2ccc(N)c(C(=O)Nc3cnccc3N3CCC[C@H](N)C3)n2)n1 [Example 723, 5-Amino-6′-ethoxy-[2,2′]bi-pyridinyl-6-carboxylic acid (3-amino-3,4,5,6-tetrahydro-2H-[1,4′]bipyridinyl-3′-yl)-amide]
< 1 µM: Pim1 kinase; read-out: PIM1 IC50 | Pim2 kinase; read-out: PIM2 IC50 | Pim3 kinase; read-out: PIM3 IC50

Nc1cc(-c2ccncc2NC(=O)c2nc(-c3ccccc3F)ccc2N)nc(N)n1 [Example 627, 3-amino-N-[4-(2,6-diaminopyrimidin-4-yl)pyridin-3-yl]-6-(2-fluorophenyl)pyridine-2-carboxamide]
< 1 µM: Pim1 kinase; read-out: PIM1 IC50 | Pim2 kinase; read-out: PIM2 IC50 | Pim3 kinase; read-out: PIM3 IC50

CCc1ccc(N)c(C(=O)Nc2cnccc2N2CCC[C@H](N)C2)n1 [Example 639, 3-amino-N-{4-[(3S)-3-aminopiperidin-1-yl]pyridin-3-yl}-6-ethylpyridine-2-carboxamide]
< 1 µM: Pim1 kinase; read-out: PIM1 IC50 | Pim2 kinase; read-out: PIM2 IC50 | Pim3 kinase; read-out: PIM3 IC50

Nc1ccc(-c2cccs2)nc1C(=O)Nc1cnccc1N1CCC[C@H](N)C1 [Example 475, 3-Amino-6-thiophen-2-yl-pyridine-2-carboxylic acid (3-amino-3,4,5,6-tetrahydro-2H-[1,4′]bipyridinyl-3′-yl)-amide]
< 1 µM: Pim1 kinase; read-out: IC50 (μM) PIM1 | Pim2 kinase; read-out: IC50 (μM) PIM2 | Pim3 kinase; read-out: IC50 (μM) PIM3

CC(C)NC(=O)c1ccc(F)c(-c2nc(C(=O)Nc3cnccc3N3CCC[C@H](N)C3)c(N)cc2F)c1 [Example 508, 3-Amino-5-fluoro-6-(2-fluoro-5-isopropylcarbamoyl-phenyl)-pyridine-2-carboxylic acid (3-amino-3,4,5,6-tetrahydro-2H-[1,4′]bipyridinyl-3′-yl)-amide]
< 1 µM: Pim1 kinase; read-out: IC50 (μM) PIM1 | Pim2 kinase; read-out: IC50 (μM) PIM2 | Pim3 kinase; read-out: IC50 (μM) PIM3

CS(=O)(=O)Nc1cccc(-c2nc(C(=O)Nc3cnccc3N3CCC[C@H](N)C3)c(N)cc2F)c1 [Example 498, 3-Amino-5-fluoro-6-(3-methanesulfonylamino-phenyl)-pyridine-2-carboxylic acid (3-amino-3,4,5,6-tetrahydro-2H-[1,4′]bipyridinyl-3′-yl)-amide]
< 1 µM: Pim1 kinase; read-out: IC50 (μM) PIM1 | Pim2 kinase; read-out: IC50 (μM) PIM2 | Pim3 kinase; read-out: IC50 (μM) PIM3

CC(C)NC(=O)c1ccc(F)c(-c2ccc(N)c(C(=O)Nc3cnccc3-c3cc(N)nc(C(F)(F)F)n3)n2)c1 [Example 554, 3-Amino-6-(2-fluoro-5-isopropylcarbamoyl-phenyl)-pyridine-2-carboxylic acid [4-(6-amino-2-trifluoromethyl-pyrimidin-4-yl)-pyridin-3-yl]-amide]
< 1 µM: Pim1 kinase; read-out: PIM1 IC50 | Pim2 kinase; read-out: PIM2 IC50 | Pim3 kinase; read-out: PIM3 IC50

Nc1cc(-c2ccncc2NC(=O)c2cccc(-c3c(F)cccc3F)n2)nc(C(F)(F)F)n1 [Example 528, 6-(2,6-Difluoro-phenyl)-pyridine-2-carboxylic acid [4-(6-amino-2-trifluoromethyl-pyrimidin-4-yl)-pyridin-3-yl]-amide]
< 1 µM: Pim1 kinase; read-out: IC50 (μM) PIM1 | Pim2 kinase; read-out: IC50 (μM) PIM2 | Pim3 kinase; read-out: IC50 (μM) PIM3

Cc1ccncc1-c1ccc(N)c(C(=O)Nc2cnccc2N2CCC[C@H](N)C2)n1 [Example 472, 5-Amino-4′-methyl-[2,3′]bi-pyridinyl-6-carboxylic acid (3-amino-3,4,5,6-tetrahydro-2H-[1,4′]bipyridinyl-3′-yl)-amide]
< 1 µM: Pim1 kinase; read-out: IC50 (μM) PIM1 | Pim2 kinase; read-out: IC50 (μM) PIM2 | Pim3 kinase; read-out: IC50 (μM) PIM3

NC1CC(C(F)(F)F)CN(c2ccncc2NC(=O)c2ccc(F)c(-c3ccccc3F)n2)C1 (stereo not drawn) [Example 281, 5-Fluoro-6-(2-fluoro-phenyl)-pyridine-2-carboxylic acid (3-amino-5-trifluoromethyl-3,4,5,6-tetrahydro-2H-[1,4′]bipyridinyl-3′-yl)-amide]
< 1 µM: Pim1 kinase; read-out: IC50 (μM) PIM1 | Pim2 kinase; read-out: IC50 (μM) PIM2 | Pim3 kinase; read-out: IC50 (μM) PIM3

N[C@@H]1CN(c2ccncc2NC(=O)c2ccc(F)c(-c3ccccc3)n2)CC[C@H]1O [Example 681, 5-Fluoro-6-phenyl-pyridine-2-carboxylic acid (3-amino-4-hydroxy-3,4,5,6-tetrahydro-2H-[1,4′]bipyridinyl-3′-yl)-amide]
< 1 µM: Pim1 kinase; read-out: PIM1 IC50 | Pim2 kinase; read-out: PIM2 IC50 | Pim3 kinase; read-out: PIM3 IC50

CCc1cccc(-c2ccc(N)c(C(=O)Nc3cnccc3N3CCC[C@H](N)C3)n2)c1 [Example 452, 3-Amino-6-(3-ethyl-phenyl)-pyridine-2-carboxylic acid (3-amino-3,4,5,6-tetrahydro-2H-[1,4′]bipyridinyl-3′-yl)-amide]
< 1 µM: Pim1 kinase; read-out: IC50 (μM) PIM1 | Pim2 kinase; read-out: IC50 (μM) PIM2 | Pim3 kinase; read-out: IC50 (μM) PIM3
